Results: patent US12077503B2, “Substituted cyclic amides and their use as herbicides” (FMC CORPORATION, priority 2015, dated 2024)

Tests used:
Assay in all cases: Test C preemergence
Format in all cases: in vivo
[1] = system: Galium (catchweed bedstraw, Galium aparine); conditions: for Plant response rating, Galium: scale 0 to 100, 0 no effect, 100 complete control
Procedure, shortened: (§1)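 Visual 0 (no effect) to 100 (complete control) ratings versus controls, taken 13–15 d after treatment in the greenhouse; dash means no result. Compounds in a surfactant-containing non-phytotoxic solvent blend were applied preemergence to seeds in loam-sand soil or postemergence to 1- to 4-leaf plants (2–18 cm) in peat-based medium.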

[2] = system: barnyardgrass (Echinochloa crus-galli); conditions: for Plant response rating, Barnyardgrass: scale 0 to 100, 0 no effect, 100 complete control
Procedure, shortened: as §1

[3] = system: blackgrass (Alopecurus myosuroides); conditions: for Plant response rating, Blackgrass: scale 0 to 100, 0 no effect, 100 complete control
Procedure, shortened: as §1

corn (Zea mays) = conditions: for Plant response rating, Corn: scale 0 to 100, 0 no effect, 100 complete control
Procedure, shortened: as §1

[4] = system: crabgrass, large (large crabgrass, Digitaria sanguinalis); conditions: for Plant response rating, Crabgrass, Large: scale 0 to 100, 0 no effect, 100 complete control
Procedure, shortened: as §1

[5] = system: foxtail, giant (giant foxtail, Setaria faberii); conditions: for Plant response rating, Foxtail, Giant: scale 0 to 100, 0 no effect, 100 complete control
Procedure, shortened: as §1

[6] = system: johnsongrass (Sorghum halepense); conditions: for Plant response rating, Johnsongrass: scale 0 to 100, 0 no effect, 100 complete control
Procedure, shortened: as §1

[7] = system: lambsquarters (Chenopodium album); conditions: for Plant response rating, Lambsquarters: scale 0 to 100, 0 no effect, 100 complete control
Procedure, shortened: as §1

[8] = system: morningglory (Ipomoea coccinea); conditions: for Plant response rating, Morningglory: scale 0 to 100, 0 no effect, 100 complete control
Procedure, shortened: as §1

[9] = system: nutsedge, yellow (yellow nutsedge, Cyperus esculentus); conditions: for Plant response rating, Nutsedge, Yellow: scale 0 to 100, 0 no effect, 100 complete control
Procedure, shortened: as §1

[10] = system: oilseed rape (Brassica napus); conditions: for Plant response rating, Oilseed Rape: scale 0 to 100, 0 no effect, 100 complete control
Procedure, shortened: as §1

[11] = system: pigweed (Amaranthus retroflexus); conditions: for Plant response rating, Pigweed: scale 0 to 100, 0 no effect, 100 complete control
Procedure, shortened: as §1

[12] = system: ragweed (common ragweed, Ambrosia elatior); conditions: for Plant response rating, Ragweed: scale 0 to 100, 0 no effect, 100 complete control
Procedure, shortened: as §1

[13] = system: ryegrass, Italian (Italian ryegrass, Lolium multiflorum); conditions: for Plant response rating, Ryegrass, Italian: scale 0 to 100, 0 no effect, 100 complete control
Procedure, shortened: as §1

soybean (Glycine max) = conditions: for Plant response rating, Soybean: scale 0 to 100, 0 no effect, 100 complete control
Procedure, shortened: as §1

[14] = system: velvetleaf (Abutilon theophrasti); conditions: for Plant response rating, Velvetleaf: scale 0 to 100, 0 no effect, 100 complete control
Procedure, shortened: as §1

[15] = system: waterhemp (common waterhemp, Amaranthus rudis); conditions: for Plant response rating, Waterhemp: scale 0 to 100, 0 no effect, 100 complete control
Procedure, shortened: as §1

[16] = system: wheat (winter wheat, Triticum aestivum); conditions: for Plant response rating, Wheat: scale 0 to 100, 0 no effect, 100 complete control
Procedure, shortened: as §1

[17] = 31 g ai/ha, 0 is no effect, 100 is complete control

SMILES: CN1CC(c2cccc(C(F)(F)F)c2)C(C(=O)Nc2cccc(F)c2F)C1=O (stereo not drawn) [Compound 636]
- Plant response rating (scale of 0 to 100), Galium [1, 17]: 85
- Plant response rating, Galium ([1]; 62 g ai/ha): 85
- Plant response rating, Galium ([1]; 125 g ai/ha): 90
- Plant response rating, Galium ([1]; 250 g ai/ha): 90
- Plant response rating (scale of 0 to 100), Barnyardgrass [2, 17]: 90
- Plant response rating, Barnyardgrass ([2]; 62 g ai/ha): 90
- Plant response rating, Barnyardgrass ([2]; 125 g ai/ha): 95
- Plant response rating, Barnyardgrass ([2]; 250 g ai/ha): 95
- Plant response rating (scale of 0 to 100), Blackgrass [3, 17]: 90
- Plant response rating, Blackgrass ([3]; 62 g ai/ha): 85
- Plant response rating, Blackgrass ([3]; 125 g ai/ha): 90
- Plant response rating, Blackgrass ([3]; 250 g ai/ha): 90
- Plant response rating (scale of 0 to 100), Corn (corn (Zea mays); [17]): 60
- Plant response rating, Corn (corn (Zea mays); 62 g ai/ha): 80
- Plant response rating, Corn (corn (Zea mays); 125 g ai/ha): 85
- Plant response rating, Corn (corn (Zea mays); 250 g ai/ha): 90
- Plant response rating (scale of 0 to 100), Crabgrass, Large [4, 17]: 95
- Plant response rating, Crabgrass, Large ([4]; 62 g ai/ha): 98
- Plant response rating, Crabgrass, Large ([4]; 125 g ai/ha): 100
- Plant response rating, Crabgrass, Large ([4]; 250 g ai/ha): 100
- Plant response rating (scale of 0 to 100), Foxtail, Giant [5, 17]: 85
- Plant response rating, Foxtail, Giant ([5]; 62 g ai/ha): 90
- Plant response rating, Foxtail, Giant ([5]; 125 g ai/ha): 90
- Plant response rating, Foxtail, Giant ([5]; 250 g ai/ha): 90
- Plant response rating (scale of 0 to 100), Johnsongrass [6, 17]: 80
- Plant response rating, Johnsongrass ([6]; 62 g ai/ha): 85
- Plant response rating, Johnsongrass ([6]; 125 g ai/ha): 85
- Plant response rating, Johnsongrass ([6]; 250 g ai/ha): 90
- Plant response rating (scale of 0 to 100), Lambsquarters [7, 17]: 40
- Plant response rating, Lambsquarters ([7]; 62 g ai/ha): 40
- Plant response rating, Lambsquarters ([7]; 125 g ai/ha): 55
- Plant response rating, Lambsquarters ([7]; 250 g ai/ha): 65
- Plant response rating (scale of 0 to 100), Morningglory [8, 17]: 5
- Plant response rating, Morningglory ([8]; 62 g ai/ha): 25
- Plant response rating, Morningglory ([8]; 125 g ai/ha): 35
- Plant response rating, Morningglory ([8]; 250 g ai/ha): 65
- Plant response rating (scale of 0 to 100), Nutsedge, Yellow [9, 17]: 0
- Plant response rating, Nutsedge, Yellow ([9]; 62 g ai/ha): 75
- Plant response rating, Nutsedge, Yellow ([9]; 125 g ai/ha): 0
- Plant response rating, Nutsedge, Yellow ([9]; 250 g ai/ha): 60
- Plant response rating (scale of 0 to 100), Oilseed Rape [10, 17]: 80
- Plant response rating, Oilseed Rape ([10]; 62 g ai/ha): 60
- Plant response rating, Oilseed Rape ([10]; 125 g ai/ha): 85
- Plant response rating, Oilseed Rape ([10]; 250 g ai/ha): 90
- Plant response rating (scale of 0 to 100), Pigweed [11, 17]: 60
- Plant response rating, Pigweed ([11]; 62 g ai/ha): 70
- Plant response rating, Pigweed ([11]; 125 g ai/ha): 80
- Plant response rating, Pigweed ([11]; 250 g ai/ha): 85
- Plant response rating (scale of 0 to 100), Ragweed [12, 17]: 20
- Plant response rating, Ragweed ([12]; 62 g ai/ha): 65
- Plant response rating, Ragweed ([12]; 125 g ai/ha): 65
- Plant response rating, Ragweed ([12]; 250 g ai/ha): 80
- Plant response rating (scale of 0 to 100), Ryegrass, Italian [13, 17]: 70
- Plant response rating, Ryegrass, Italian ([13]; 62 g ai/ha): 30
- Plant response rating, Ryegrass, Italian ([13]; 125 g ai/ha): 50
- Plant response rating, Ryegrass, Italian ([13]; 250 g ai/ha): 90
- Plant response rating (scale of 0 to 100), Soybean (soybean (Glycine max); [17]): 0
- Plant response rating, Soybean (soybean (Glycine max); 62 g ai/ha): 75
- Plant response rating, Soybean (soybean (Glycine max); 125 g ai/ha): 0
- Plant response rating, Soybean (soybean (Glycine max); 250 g ai/ha): 0
- Plant response rating (scale of 0 to 100), Velvetleaf [14, 17]: 5
- Plant response rating, Velvetleaf ([14]; 62 g ai/ha): 50
- Plant response rating, Velvetleaf ([14]; 125 g ai/ha): 55
- Plant response rating, Velvetleaf ([14]; 250 g ai/ha): 55
- Plant response rating (scale of 0 to 100), Waterhemp [15, 17]: 65
- Plant response rating, Waterhemp ([15]; 62 g ai/ha): 75
- Plant response rating, Waterhemp ([15]; 125 g ai/ha): 85
- Plant response rating, Waterhemp ([15]; 250 g ai/ha): 85
- Plant response rating (scale of 0 to 100), Wheat [16, 17]: 35
- Plant response rating, Wheat ([16]; 62 g ai/ha): 45
- Plant response rating, Wheat ([16]; 125 g ai/ha): 65
- Plant response rating, Wheat ([16]; 250 g ai/ha): 75
